Experimental data reported in ChEMBL document CHEMBL1151118, “Plant antimutagenic agents, 2. Flavonoids” (J Nat Prod, 1988).

Tests used:
Salmonella typhimurium [1] = assay: Antimutagenic activity in Salmonella Typhimurium […] assessed as inhibition of benzo[a]pyrene-induced mutation at 600 ug/plate after 72 hrs in presence of Ames S-9 fraction; type: functional, Salmonella enterica subsp. enterica serovar Typhimurium
Salmonella typhimurium [2] = assay: Antimutagenic activity in Salmonella Typhimurium […] assessed as inhibition of 2-aminoanthracene-induced mutation at 150 ug/plate after 72 hrs in presence of Ames S-9 fraction; type: functional, Salmonella enterica subsp. enterica serovar Typhimurium
Salmonella typhimurium [3] = assay: Antimutagenic activity in Salmonella Typhimurium […] assessed as inhibition of 2-nitroflorene-induced mutation at 150 ug/plate after 72 hrs; type: functional, Salmonella enterica subsp. enterica serovar Typhimurium
Salmonella typhimurium [4] = assay: Antimutagenic activity in Salmonella Typhimurium […] assessed as inhibition of benzo[a]pyrene-induced mutation at 300 ug/plate after 72 hrs in presence of Ames S-9 fraction; type: functional, Salmonella enterica subsp. enterica serovar Typhimurium
Salmonella typhimurium [5] = assay: Antimutagenic activity in Salmonella Typhimurium […] assessed as inhibition of 2-aminoanthracene-induced mutation at 300 ug/plate after 72 hrs in presence of Ames S-9 fraction; type: functional, Salmonella enterica subsp. enterica serovar Typhimurium
Salmonella typhimurium [6] = assay: Antimutagenic activity in Salmonella Typhimurium […] assessed as inhibition of acetylaminofluorene-induced mutation at 300 ug/plate after 72 hrs in presence of Ames S-9 fraction; type: functional, Salmonella enterica subsp. enterica serovar Typhimurium
Salmonella typhimurium [7] = assay: Antimutagenic activity in Salmonella Typhimurium […] assessed as inhibition of benzo[a]pyrene-induced mutation at 150 ug/plate after 72 hrs in presence of Ames S-9 fraction; type: functional, Salmonella enterica subsp. enterica serovar Typhimurium
Salmonella typhimurium [8] = assay: Antimutagenic activity in Salmonella Typhimurium […] assessed as inhibition of 2-aminoanthracene-induced mutation at 600 ug/plate after 72 hrs in presence of Ames S-9 fraction; type: functional, Salmonella enterica subsp. enterica serovar Typhimurium
Salmonella typhimurium [9] = assay: Antimutagenic activity in Salmonella Typhimurium […] assessed as inhibition of 2-nitroflorene-induced mutation at 600 ug/plate after 72 hrs; type: functional, Salmonella enterica subsp. enterica serovar Typhimurium
Salmonella typhimurium [10] = assay: Antimutagenic activity in Salmonella Typhimurium […] assessed as inhibition of acetylaminofluorene-induced mutation at 150 ug/plate after 72 hrs in presence of Ames S-9 fraction; type: functional, Salmonella enterica subsp. enterica serovar Typhimurium
Salmonella typhimurium [11] = assay: Antimutagenic activity in Salmonella Typhimurium […] assessed as inhibition of acetylaminofluorene-induced mutation at 600 ug/plate after 72 hrs in presence of Ames S-9 fraction; type: functional, Salmonella enterica subsp. enterica serovar Typhimurium
Salmonella typhimurium [12] = assay: Antimutagenic activity in Salmonella Typhimurium […] assessed as inhibition of 2-nitroflorene-induced mutation at 300 ug/plate after 72 hrs; type: functional, Salmonella enterica subsp. enterica serovar Typhimurium
[13] = Toxicity in Salmonella Typhimurium […] at 150 ug/plate after 72 hrs by Ames assay in presence of Ames S-9 fraction; type: organism-based; settings: salmonella enterica subsp. enterica serovar typhimurium, Salmonella Typhimurium T98 with S-9 fraction
[14] = Toxicity in Salmonella Typhimurium […] at 600 ug/plate after 72 hrs by Ames assay in presence of Ames S-9 fraction; type: organism-based; settings: salmonella enterica subsp. enterica serovar typhimurium, Salmonella Typhimurium T98 with S-9 fraction
[15] = Toxicity in Salmonella Typhimurium […] at 300 ug/plate after 72 hrs by Ames assay in presence of Ames S-9 fraction; type: organism-based; settings: salmonella enterica subsp. enterica serovar typhimurium, Salmonella Typhimurium T98 with S-9 fraction

SMILES	inhibition (INH) (Salmonella typhimurium [1])	inhibition (INH) (Salmonella typhimurium [2])	inhibition (INH) (Salmonella typhimurium [3])	inhibition (INH) (Salmonella typhimurium [4])	inhibition (INH) (Salmonella typhimurium [5])	inhibition (INH) (Salmonella typhimurium [6])	inhibition (INH) (Salmonella typhimurium [7])	inhibition (INH) (Salmonella typhimurium [8])	inhibition (INH) (Salmonella typhimurium [9])	inhibition (INH) (Salmonella typhimurium [10])	inhibition (INH) (Salmonella typhimurium [11])	inhibition (INH) (Salmonella typhimurium [12])	inhibition at 72 h, 150 ug/plate [13]	inhibition at 72 h, 600 ug/plate [14]	inhibition at 72 h, 300 ug/plate [15]
O=c1cc(-c2ccc(O)cc2)oc2cc(O)cc(O)c12 [APIGENIN]	75%	0%	60%	64%	0%	14%	67%	10%	88%	0%	0%	70%	–	–	–
C=C[C@@](C)(/C=C/c1ccc(O)cc1)CCC=C(C)C [BAKUCHIOL]	43%	91%	75%	28%	84%	0%	0%	81%	92%	0%	0%	79%	< 20%	< 30%	< 20%
CC(C)=CCc1cc2c(cc1O)O[C@H](c1ccc(O)cc1)CC2=O [BAVACHIN]	–	98%	52%	0%	98%	0%	0%	62%	–	0%	–	72%	< 20%	–	50%
COc1ccc(-c2coc3cc(O)cc(O)c3c2=O)cc1 [BIOCHANIN]	–	–	–	–	–	–	–	57%	–	–	–	–	–	< 20%	< 20%
COc1ccc(-c2coc3cc(O)ccc3c2=O)cc1 [FORMONONETIN]	–	–	–	–	–	–	–	0%	–	–	–	–	–	–	–
O=c1c(O)c(-c2ccccc2)oc2cc(O)cc(O)c12 [GALANGIN]	–	–	–	–	–	–	–	97%	–	–	–	–	–	–	–
COc1ccc([C@@H]2CC(=O)c3c(O)cc(O[C@@H]4O[C@H](CO[C@@H]5O[C@@H](C)[C@H](O)[C@@H](O)[C@H]5O)[C@@H](O)[C@H](O)[C@H]4O)cc3O2)cc1O [HESPERIDIN]	–	–	–	–	–	–	–	13%	–	–	–	–	–	< 20%	< 20%
CC(C)=CCc1c(O)ccc(C(=O)/C=C/c2ccc(O)cc2)c1O [ISOBAVACHALCONE]	–	–	–	–	–	–	–	86%	–	–	–	–	–	> 90%	> 90%
O=c1c(O)c(-c2ccc(O)cc2O)oc2cc(O)cc(O)c12 [MORIN]	–	–	–	–	–	–	–	0%	–	–	–	–	–	< 30%	< 20%
C[C@@H]1O[C@@H](O[C@H]2[C@H](Oc3cc(O)c4c(c3)O[C@H](c3ccc(O)cc3)CC4=O)O[C@H](CO)[C@@H](O)[C@@H]2O)[C@H](O)[C@H](O)[C@H]1O [NARINGIN]	–	–	–	–	–	–	–	38%	–	–	–	–	–	50%	< 30%
CC(C)=CCc1cc(-c2coc3cc(O)ccc3c2=O)ccc1O [NEOBAVAISOFLAVONE]	97%	98%	15%	74%	67%	72%	17%	97%	66%	2%	96%	53%	–	> 90%	> 90%
COc1ccc(-c2cc(=O)c3c(OC)c(OC)c(OC)c(OC)c3o2)cc1OC [NOBILETIN]	–	–	–	–	–	–	–	43%	–	–	–	–	–	< 20%	< 20%
O=c1c(O)c(-c2ccc(O)c(O)c2)oc2cc(O)cc(O)c12 [QUERCETIN]	0%	16%	0%	0%	24%	0%	0%	20%	0%	0%	0%	0%	–	50%	50%
COc1cc(O)c2c(=O)c(O)c(-c3ccc(O)c(O)c3)oc2c1 [RHAMNETIN]	–	0%	34%	45%	0%	52%	7%	78%	–	11%	–	41%	–	–	–
C[C@@H]1O[C@@H](OC[C@H]2O[C@@H](Oc3c(-c4ccc(O)c(O)c4)oc4cc(O)cc(O)c4c3=O)[C@H](O)[C@@H](O)[C@@H]2O)[C@H](O)[C@H](O)[C@H]1O [RUTIN]	–	–	–	–	–	–	–	0%	–	–	–	–	–	< 20%	< 20%
COc1ccc(-c2cc(=O)c3c(OC)c(OC)c(OC)c(OC)c3o2)cc1 [TANGERETIN]	–	–	–	–	–	–	–	42%	–	–	–	–	–	50%	< 20%
